According to patent US11649227B2, “Allosteric chromenone inhibitors of phosphoinositide 3-kinase (PI3K) for the treatment of disease” (Petra Pharma Corporation, priority 2020, dated 2023):

The molecules below were run against human full length PIK3CA Wild-type (p110α/p85α complex) (Homo sapiens (Human), UniProt P42336) (assay: PI3K-Alpha kinase (PIK3CA) activity, wild-type, Transcreener ADP2 FI assay). Conditions: PI3K-α (PIK3CA) wild-type, biochemical.
Method in brief: (§1)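 Recombinant full-length p110α/p85α (1-5 nM, wild-type or H1047R) preincubated with compound 1 h at 27° C, then reacted with 25 uM ATP and 50 uM PIP2diC8 or membrane PIP2:PS in pH 7.4 HEPES, 25 mM MgCl2, 5% DMSO (also pH 6.0/6.4 MOPS). Run to ~2.5 uM ADP; Transcreener ADP2 fluorescence converted via ADP calibration for IC50.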

human full length PIK3CA Wild-type (p110α/p85α complex), sequence (P42336 whole entry): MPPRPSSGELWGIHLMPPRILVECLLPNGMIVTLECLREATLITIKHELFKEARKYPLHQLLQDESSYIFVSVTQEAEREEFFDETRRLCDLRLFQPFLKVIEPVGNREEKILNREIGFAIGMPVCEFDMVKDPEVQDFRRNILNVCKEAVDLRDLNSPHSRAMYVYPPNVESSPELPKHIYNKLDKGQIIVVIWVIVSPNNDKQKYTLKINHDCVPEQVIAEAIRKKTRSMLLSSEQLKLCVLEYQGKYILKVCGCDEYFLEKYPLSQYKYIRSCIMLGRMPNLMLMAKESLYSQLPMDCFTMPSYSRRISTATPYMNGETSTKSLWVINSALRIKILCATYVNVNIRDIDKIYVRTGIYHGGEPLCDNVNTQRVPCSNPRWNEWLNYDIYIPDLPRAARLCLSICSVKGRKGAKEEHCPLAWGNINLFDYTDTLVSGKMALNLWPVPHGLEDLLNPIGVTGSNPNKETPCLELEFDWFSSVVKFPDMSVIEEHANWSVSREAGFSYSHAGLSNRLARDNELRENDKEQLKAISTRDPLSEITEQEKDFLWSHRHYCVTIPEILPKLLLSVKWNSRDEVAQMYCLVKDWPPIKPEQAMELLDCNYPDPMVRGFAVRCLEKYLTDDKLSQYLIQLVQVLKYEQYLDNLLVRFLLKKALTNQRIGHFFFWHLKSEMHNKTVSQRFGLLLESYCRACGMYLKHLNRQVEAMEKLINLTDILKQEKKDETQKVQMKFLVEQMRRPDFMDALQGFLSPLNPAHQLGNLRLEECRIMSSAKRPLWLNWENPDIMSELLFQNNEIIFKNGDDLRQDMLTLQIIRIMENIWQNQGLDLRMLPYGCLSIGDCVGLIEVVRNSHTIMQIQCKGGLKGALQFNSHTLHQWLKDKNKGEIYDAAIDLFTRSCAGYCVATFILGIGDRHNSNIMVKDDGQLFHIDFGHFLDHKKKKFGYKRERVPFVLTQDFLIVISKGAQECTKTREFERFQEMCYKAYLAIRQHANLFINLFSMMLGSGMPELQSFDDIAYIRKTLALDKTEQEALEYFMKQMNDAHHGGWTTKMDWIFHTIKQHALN
human full length PIK3CA Wild-type (p110α/p85α complex), sequence (P27986 whole entry partner): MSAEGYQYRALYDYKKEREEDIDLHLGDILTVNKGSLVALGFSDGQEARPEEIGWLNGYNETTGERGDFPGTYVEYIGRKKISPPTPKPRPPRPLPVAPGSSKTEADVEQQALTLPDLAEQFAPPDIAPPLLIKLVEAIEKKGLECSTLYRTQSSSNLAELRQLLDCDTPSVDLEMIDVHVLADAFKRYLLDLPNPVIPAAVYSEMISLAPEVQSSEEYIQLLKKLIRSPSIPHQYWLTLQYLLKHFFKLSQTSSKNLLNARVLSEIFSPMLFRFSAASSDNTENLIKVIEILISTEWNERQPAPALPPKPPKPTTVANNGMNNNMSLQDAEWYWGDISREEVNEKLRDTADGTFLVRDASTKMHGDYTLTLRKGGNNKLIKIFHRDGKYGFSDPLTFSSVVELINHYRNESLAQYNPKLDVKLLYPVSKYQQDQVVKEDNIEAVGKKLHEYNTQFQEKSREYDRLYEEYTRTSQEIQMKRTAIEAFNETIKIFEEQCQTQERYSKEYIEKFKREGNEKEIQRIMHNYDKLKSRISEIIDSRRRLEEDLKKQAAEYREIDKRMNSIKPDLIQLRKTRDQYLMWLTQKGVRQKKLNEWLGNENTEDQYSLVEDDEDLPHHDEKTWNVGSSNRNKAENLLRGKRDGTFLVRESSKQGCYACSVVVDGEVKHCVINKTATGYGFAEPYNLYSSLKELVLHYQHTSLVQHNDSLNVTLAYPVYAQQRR

SMILES | IC50 [µM]
CONC(=O)c1ccccc1NC(C)c1cc(C)cc2c(=O)cc(N3CCC(C)(C)CC3)oc12 (stereo not drawn) [Example 19, 2-[1-[2-(4,4-Dimethyl-1-piperidyl)-6-methyl-4-oxo-chromen-8-yl]ethylamino]-N-methoxy-benzamide] | 0.5 to 1
Cc1cc(C(C)Nc2ccccc2-c2nnn[nH]2)c2oc(N3CCC(C)(C)CC3)cc(=O)c2c1 (stereo not drawn) [Example 20, 2-(4,4-Dimethyl-1-piperidyl)-6-methyl-8-[1-[2-(1H-tetrazol-5-yl)anilino]ethyl]chromen-4-one] | 0.5 to 1
Cc1cc([C@@H](C)Nc2ccccc2C(=O)O)c2oc(N3CCCCC3)cc(=O)c2c1 [Example 376, 2-[[(1R)-1-[6-Methyl-4-oxo-2-(1-piperidyl)chromen-8-yl]ethyl]amino]benzoic acid] | 1 to 5

Each molecule was assayed against human full length PIK3CA H1047R mutant (p110α/p85α complex) (Homo sapiens (Human), UniProt P42336, H1047R) (assay: PI3K-Alpha kinase (PIK3CA) activity, H1047R mutant, Transcreener ADP2 FI assay). Conditions: PI3K-α (PIK3CA) H1047R mutant, biochemical.
human full length PIK3CA H1047R mutant (p110α/p85α complex), sequence (P42336 whole entry H1047R): as the sequence (P42336 whole entry) above, with H1047R counted along it
human full length PIK3CA H1047R mutant (p110α/p85α complex), sequence (P27986 whole entry partner): as the sequence (P27986 whole entry partner) above
Method in brief: as §1

SMILES | IC50 [µM]
CCNc1cc(=O)c2cc(C)cc(C(C)Nc3ccccc3C(=O)O)c2o1 (stereo not drawn) [Example 126, 2-[1-[2-(Ethylamino)-6-methyl-4-oxo-chromen-8-yl]ethylamino]benzoic acid] | 0.5 to 1
COc1cc(C(=O)O)c(NC(C)c2cc(C)cc3c(=O)cc(N4CCC(C)(C)CC4)oc23)cc1F (stereo not drawn) [Example 1, 2-[1-[2-(4,4-dimethyl-1-piperidyl)-6-methyl-4-oxo-chromen-8-yl]ethylamino]-4-fluoro-5-methoxy-benzoic acid] | 1 to 5

The molecules below were run on T-47D (assay: Cellular Assay T-47D). Conditions: Homo sapiens, T47D; T-47D cells.
Format: cell-based

SMILES | EC50 [µM]
CONC(=O)c1ccccc1NC(C)c1cc(C)cc2c(=O)cc(N3CCC(C)(C)CC3)oc12 (stereo not drawn) [Example 19, 2-[1-[2-(4,4-Dimethyl-1-piperidyl)-6-methyl-4-oxo-chromen-8-yl]ethylamino]-N-methoxy-benzamide] | 15 to 24
Cc1cc(C(C)Nc2ccccc2S(N)(=O)=O)c2oc(N3CCC(C)(C)CC3)cc(=O)c2c1 (stereo not drawn) [Example 21, 2-[1-[2-(4,4-Dimethyl-1-piperidyl)-6-methyl-4-oxo-chromen-8-yl]ethylamino]benzenesulfonamide] | 5 to 15
Cc1cc(C(C)Nc2cccc(F)c2C(=O)O)c2oc(N3CCC(C)(C)CC3)cc(=O)c2c1 (stereo not drawn) [Example 23, 2-[1-[2-(4,4-Dimethyl-1-piperidyl)-6-methyl-4-oxo-chromen-8-yl]ethylamino]-6-fluoro-benzoic acid] | 5 to 15
Cc1cc(C(C)Nc2cc(C)c(C)cc2C(=O)O)c2oc(N3CCC(C)(C)CC3)cc(=O)c2c1 (stereo not drawn) [Example 12, 2-[1-[2-(4,4-Dimethyl-1-piperidyl)-6-methyl-4-oxo-chromen-8-yl]ethylamino]-4,5-dimethyl-benzoic acid] | > 24
Cc1cc(C(C)Nc2cccc(Cl)c2C(=O)O)c2oc(N3CCC(C)(C)CC3)cc(=O)c2c1 (stereo not drawn) [Example 24, 2-Chloro-6-[1-[2-(4,4-dimethyl-1-piperidyl)-6-methyl-4-oxo-chromen-8-yl]ethylamino]benzoic acid] | > 24
COc1cc(NC(C)c2cc(C)cc3c(=O)cc(N4CCC(C)(C)CC4)oc23)c(C(=O)O)cc1OC (stereo not drawn) [Example 16, 2-[1-[2-(4,4-Dimethyl-1-piperidyl)-6-methyl-4-oxo-chromen-8-yl]ethylamino]-4,5-dimethoxy-benzoic acid] | > 24
Cc1cc(C(C)Nc2cc(F)ccc2C(=O)O)c2oc(N3CCC(C)(C)CC3)cc(=O)c2c1 (stereo not drawn) [Example 36, 2-[1-[2-(4,4-Dimethyl-1-piperidyl)-6-methyl-4-oxo-chromen-8-yl]ethylamino]-4-fluoro-benzoic acid] | 5 to 15
Cc1cc(C(C)Nc2ccccc2C(=O)O)c2oc(N(C)C)cc(=O)c2c1 (stereo not drawn) [Example 78, 2-[1-[2-(Dimethylamino)-6-methyl-4-oxo-chromen-8-yl]ethylamino]benzoic acid] | > 24
COCCOCCOC(=O)c1ccccc1N[C@H](C)c1cc(C)cc2c(=O)cc(N3CCCCC3)oc12 [Example 377, 2-(2-Methoxyethoxy)ethyl 2-[[(1R)-1-[6-methyl-4-oxo-2-(1-piperidyl)chromen-8-yl]ethyl]amino]benzoate] | > 24
Cc1cc(C(C)Nc2ccccc2C(=O)O)c2oc(N3CCC4(CCNCC4)CC3)cc(=O)c2c1 (stereo not drawn) [Example 89, 2-[1-[2-(3,9-Diazaspiro[5.5]undecan-3-yl)-6-methyl-4-oxo-chromen-8-yl]ethylamino]benzoic acid] | > 24
Cc1cc(C(C)Nc2ccccc2C(=O)O)c2oc(N3CCC4(CCN(C)C4=O)CC3)cc(=O)c2c1 (stereo not drawn) [Example 381, 2-[1-[6-Methyl-2-(2-methyl-1-oxo-2,8-diazaspiro[4.5]decan-8-yl)-4-oxo-chromen-8-yl]ethylamino]benzoic acid] | > 24
Cc1cc([C@@H](C)Nc2ccccc2C(=O)O)c2oc(N3CCC(Cl)CC3)cc(=O)c2c1 [Example 383, 2-[[(1R)-1-[2-(4-Chloro-1-piperidyl)-6-methyl-4-oxo-chromen-8-yl]ethyl]amino]benzoic acid] | 1 to 5
Cc1cc(C(C)Nc2ccccc2C(=O)O)c2oc(N3CCC3)cc(=O)c2c1 (stereo not drawn) [Example 375, 2-[1-[2-(Azetidin-1-yl)-6-methyl-4-oxo-chromen-8-yl]ethylamino]benzoic acid] | > 24
COc1ccc(NC(C)c2cc(C)cc3c(=O)cc(N4CCC(C)(C)CC4)oc23)c(C(=O)O)c1 (stereo not drawn) [Example 15, 2-[1-[2-(4,4-Dimethyl-1-piperidyl)-6-methyl-4-oxo-chromen-8-yl]ethylamino]-5-methoxy-benzoic acid] | 5 to 15
Cc1cc(C(C)Nc2ccc(F)cc2C(=O)O)c2oc(N3CCC(C)(C)CC3)cc(=O)c2c1 (stereo not drawn) [Example 14, 2-[1-[2-(4,4-Dimethyl-1-piperidyl)-6-methyl-4-oxo-chromen-8-yl]ethylamino]-5-fluoro-benzoic acid] | 1 to 5
Cc1cc(C(C)Nc2ccccc2C(=O)O)c2oc(N3CCN(C(=O)OC(C)(C)C)CC3)cc(=O)c2c1 (stereo not drawn) [Example 90, 2-[1-[2-(4-tert-Butoxycarbonylpiperazin-1-yl)-6-methyl-4-oxo-chromen-8-yl]ethylamino]benzoic acid] | 15 to 24
Cc1cc(C(C)Nc2cc(F)c(C)cc2C(=O)O)c2oc(N3CCC(C)(C)CC3)cc(=O)c2c1 (stereo not drawn) [Example 18, 2-[1-[2-(4,4-Dimethyl-1-piperidyl)-6-methyl-4-oxo-chromen-8-yl]ethylamino]-4-fluoro-5-methyl-benzoic acid] | 15 to 24

SMILES | EC50 [µM]
Cc1cc(C(C)Nc2ccccc2C(=O)O)c2oc(N3CCNCC3)cc(=O)c2c1 (stereo not drawn) [Example 91, 2-[1-(6-Methyl-4-oxo-2-piperazin-1-yl-chromen-8-yl)ethylamino]benzoic acid] | > 24
Cc1cc(C(C)Nc2ccccc2-c2nnn[nH]2)c2oc(N3CCC(C)(C)CC3)cc(=O)c2c1 (stereo not drawn) [Example 20, 2-(4,4-Dimethyl-1-piperidyl)-6-methyl-8-[1-[2-(1H-tetrazol-5-yl)anilino]ethyl]chromen-4-one] | 15 to 24
Cc1cc(C(C)Nc2ccccc2C(=O)O)c2oc(N3CCCC3)cc(=O)c2c1 (stereo not drawn) [Example 368, 2-[1-(6-Methyl-4-oxo-2-pyrrolidin-1-yl-chromen-8-yl)ethylamino]benzoic acid] | 15 to 24
Cc1cc(C(C)Nc2ccccc2C(=O)O)c2oc(N3CCCC4(CCNC4=O)C3)cc(=O)c2c1 (stereo not drawn) [Example 95, 2-[1-[6-Methyl-4-oxo-2-(1-oxo-2,9-diazaspiro[4.5]decan-9-yl)chromen-8-yl]ethylamino]benzoic acid] | > 24
Cc1cc(C(C)Nc2ccccc2C(=O)O)c2oc(N3CCC4(CCOCC4)CC3)cc(=O)c2c1 (stereo not drawn) [Example 94, 2-[1-[6-Methyl-2-(3-oxa-9-azaspiro[5.5]undecan-9-yl)-4-oxo-chromen-8-yl]ethylamino]benzoic acid] | 5 to 15
Cc1cc(C(C)Nc2c(C)cccc2C(=O)O)c2oc(N3CCC(C)(C)CC3)cc(=O)c2c1 (stereo not drawn) [Example 17, 2-[1-[2-(4,4-Dimethyl-1-piperidyl)-6-methyl-4-oxo-chromen-8-yl]ethylamino]-3-methyl-benzoic acid] | > 24
Cc1cc(C(C)Nc2cccc3c2C(=O)NC3=O)c2oc(N3CCC(C)(C)CC3)cc(=O)c2c1 (stereo not drawn) [Example 32, 4-((1-(2-(4,4-Dimethylpiperidin-1-yl)-6-methyl-4-oxo-4H-chromen-8-yl)ethyl)amino)isoindoline-1,3-dione] | > 24
CCNc1cc(=O)c2cc(C)cc(C(C)Nc3ccccc3C(=O)O)c2o1 (stereo not drawn) [Example 126, 2-[1-[2-(Ethylamino)-6-methyl-4-oxo-chromen-8-yl]ethylamino]benzoic acid] | > 24
COc1cc(C(=O)O)c(NC(C)c2cc(C)cc3c(=O)cc(N4CCC(C)(C)CC4)oc23)cc1F (stereo not drawn) [Example 1, 2-[1-[2-(4,4-dimethyl-1-piperidyl)-6-methyl-4-oxo-chromen-8-yl]ethylamino]-4-fluoro-5-methoxy-benzoic acid] | 15 to 24
Cc1cc(CNc2ccccc2C(=O)O)c2oc(N3CCC(C)(C)CC3)cc(=O)c2c1 [Example 369, 2-[[2-(4,4-Dimethyl-1-piperidyl)-6-methyl-4-oxo-chromen-8-yl]methylamino]benzoic acid] | > 24
Cc1cc(C(C)Nc2ccccc2C(=O)O)c2oc(N3CCCC(C)C3)cc(=O)c2c1 (stereo not drawn) [Example 79, 2-[1-[6-Methyl-2-(3-methyl-1-piperidyl)-4-oxo-chromen-8-yl]ethylamino]benzoic acid] | 1 to 5
Cc1cc(C(C)Nc2ccc(Br)cc2C(=O)O)c2oc(N3CCC(C)(C)CC3)cc(=O)c2c1 (stereo not drawn) [Example 7, 5-Bromo-2-[1-[2-(4,4-dimethyl-1-piperidyl)-6-methyl-4-oxo-chromen-8-yl]ethylamino]benzoic acid] | 5 to 15
Cc1cc(C(C)Nc2ccccc2C(=O)O)c2oc(N3CCC4(CC3)COC4)cc(=O)c2c1 (stereo not drawn) [Example 98, 2-[1-[6-Methyl-2-(2-oxa-7-azaspiro[3.5]nonan-7-yl)-4-oxo-chromen-8-yl]ethylamino]benzoic acid] | > 24
Cc1cc(C(C)Nc2ccccc2C(=O)O)c2oc(N3CCC(C)CC3)cc(=O)c2c1 (stereo not drawn) [Example 370, 2-[1-[6-Methyl-2-(4-methyl-1-piperidyl)-4-oxo-chromen-8-yl]ethylamino]benzoic acid] | 1 to 5
Cc1cc([C@@H](C)Nc2ccccc2C(=O)O)c2oc(N3CCCCC3)cc(=O)c2c1 [Example 376, 2-[[(1R)-1-[6-Methyl-4-oxo-2-(1-piperidyl)chromen-8-yl]ethyl]amino]benzoic acid] | 1 to 5
Cc1cc(C(C)Nc2ccccc2C(=O)O)c2oc(N3CCC(C)(C)CC3)c(C)c(=O)c2c1 (single isomer, unassigned) [Example 358, 2-[1-[2-(4,4-Dimethyl-1-piperidyl)-3,6-dimethyl-4-oxo-chromen-8-yl]ethylamino]benzoic acid] | < 1
COC(=O)c1ccccc1N[C@H](C)c1cc(C)cc2c(=O)cc(N3CCCCC3)oc12 [Example 379, Methyl 2-[[(1R)-1-[6-methyl-4-oxo-2-(1-piperidyl)chromen-8-yl]ethyl]amino]benzoate] | > 24
